Assay results published in patent publication US9999221B2, “Herbicide combination containing pelargonic acid and defined ALS inhibitors” (BAYER CROPSCIENCE AKTIENGESELLSCHAFT, priority 2013, dated 2018).

Columns and labels:
Assay in all cases: Post-emergence test, % damage
Type in all cases: in vivo
Details in all cases: after 48 days
[1] = test system: Poa annua
Excerpt: (§1) After 48 days, the degree of damage to the plants is rated in % damage in comparison to the development of the untreated control.

[2] = test system: Taraxacum officinale
Excerpt: as §1

[3] = test system: Festuca ovina
Excerpt: as §1

[4] = test system: Trifolium repens
Excerpt: as §1

[5] = test system: Plantago major
Excerpt: as §1

[6] = test system: Chenopodium album
Excerpt: as §1

[7] = Pelargonic acid 10000 g of active compound/ha
[8] = Pelargonic acid 20000 g of active compound/ha
[9] = Pelargonic acid 30000 g of active compound/ha
[10] = Iodosulfuron-methyl 1 g of active compound/ha
[11] = Iodosulfuron-methyl 1.25 g of active compound/ha
[12] = Iodosulfuron-methyl 2.5 g of active compound/ha
[13] = Iodosulfuron-methyl 10 g of active compound/ha

Molecule: CCCCCCCCC(=O)O [Pelargonic acid, nonanoic acid]
- herbicidal effect [%] [1, 7]: 0%
- herbicidal effect [%] [1, 8]: 0%
- herbicidal effect [%] [1, 9]: 0%
- herbicidal effect [%] [2, 7]: 6.7%
- herbicidal effect [%] [2, 8]: 7%
- herbicidal effect [%] [2, 9]: 20%
- herbicidal effect [%] [3, 7]: 0%
- herbicidal effect [%] [3, 8]: 0%
- herbicidal effect [%] [3, 9]: 6.7%
- herbicidal effect [%] [4, 7]: 0%
- herbicidal effect [%] [4, 8]: 0%
- herbicidal effect [%] [4, 9]: 3.3%
- herbicidal effect [%] [5, 7]: 0%
- herbicidal effect [%] [5, 8]: 0%
- herbicidal effect [%] [5, 9]: 13.3%
- herbicidal effect [%] [6, 7]: 0%
- herbicidal effect [%] [6, 8]: 10%
- herbicidal effect [%] [6, 9]: 20%

Molecule: 4-iodo-2-[(4-methoxy-6-methyl-1,3,5-triazin-2-yl)carbamoylsulfamoyl]benzoate, sodium salt [Iodosulfuron-methyl]
- herbicidal effect [%] [1, 10]: 0%
- herbicidal effect [%] [1, 11]: 0%
- herbicidal effect [%] [1, 12]: 0%
- herbicidal effect [%] [1, 13]: 0%
- herbicidal effect [%] [2, 10]: 18.3%
- herbicidal effect [%] [2, 11]: 18%
- herbicidal effect [%] [2, 12]: 42%
- herbicidal effect [%] [2, 13]: 85%
- herbicidal effect [%] [3, 10]: 0%
- herbicidal effect [%] [3, 11]: 0%
- herbicidal effect [%] [3, 12]: 0%
- herbicidal effect [%] [3, 13]: 6.7%
- herbicidal effect [%] [4, 10]: 18.3%
- herbicidal effect [%] [4, 11]: 32%
- herbicidal effect [%] [4, 12]: 45%
- herbicidal effect [%] [4, 13]: 80%
- herbicidal effect [%] [5, 10]: 0%
- herbicidal effect [%] [5, 11]: 3%
- herbicidal effect [%] [5, 12]: 30%
- herbicidal effect [%] [5, 13]: 53.3%
- herbicidal effect [%] [6, 10]: 0%
- herbicidal effect [%] [6, 11]: 0%
- herbicidal effect [%] [6, 12]: 10%
- herbicidal effect [%] [6, 13]: 40%
